Patent US11110103B2, “Inhibitors of glucocorticoid receptor” (ORIC Pharmaceuticals, Inc., priority 2015, dated 2021)

target: T1, GR (Homo sapiens, UniProt P04150); assay: In Vitro GR Luciferase Reporter Assay (antagonist assay); type: cell-based; details: CHO-K1-GR-MMTV-Luc reporter cells, 10 nM Dexamethasone, 18-24 hours
T1 construct: expressed in transfected cells; host or cells: CHO-K1 (CHO-K1-GR-MMTV-Luc reporter cells)
T1 sequence (P04150 1-777): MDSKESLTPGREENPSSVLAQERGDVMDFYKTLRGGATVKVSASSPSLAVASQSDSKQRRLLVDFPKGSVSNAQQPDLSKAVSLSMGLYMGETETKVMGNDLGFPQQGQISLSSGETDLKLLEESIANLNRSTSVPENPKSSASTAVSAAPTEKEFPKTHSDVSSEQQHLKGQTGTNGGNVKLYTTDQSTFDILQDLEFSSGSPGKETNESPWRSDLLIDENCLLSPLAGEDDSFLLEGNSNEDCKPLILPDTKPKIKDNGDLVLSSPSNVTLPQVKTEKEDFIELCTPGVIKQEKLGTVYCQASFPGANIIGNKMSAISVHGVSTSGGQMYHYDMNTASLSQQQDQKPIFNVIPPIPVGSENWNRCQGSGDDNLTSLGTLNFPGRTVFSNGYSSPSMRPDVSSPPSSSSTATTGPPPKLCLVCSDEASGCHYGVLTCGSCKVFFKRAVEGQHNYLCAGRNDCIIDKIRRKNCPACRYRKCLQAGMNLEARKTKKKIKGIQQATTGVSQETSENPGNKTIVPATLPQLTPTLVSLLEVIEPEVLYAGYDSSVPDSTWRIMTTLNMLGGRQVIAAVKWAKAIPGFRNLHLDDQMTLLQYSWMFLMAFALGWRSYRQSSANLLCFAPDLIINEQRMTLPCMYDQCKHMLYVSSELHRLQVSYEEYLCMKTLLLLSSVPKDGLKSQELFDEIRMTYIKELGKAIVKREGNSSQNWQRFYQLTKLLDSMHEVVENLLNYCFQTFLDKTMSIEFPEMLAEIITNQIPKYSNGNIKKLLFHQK
Experimental: Cell Line: CHO-K1-GR-MMTV-Luc reporter cells
Culture Media: DMEM (with phenol red)+10% FBS
Assay Media: DMEM (without phenol red)+10% CSS
Culture CHO-K1-GR-MMTV-Luc reporter cells in 15 cm plates in Culture Media at conditions less than 90% confluence.
Prepare 200×DMSO 1:5 serial dilutions of control and test compounds in 96-well non-sterile V bottom plate in DMSO, 8 serial dilutions for each compound.
Add compounds: 5 ul of assay media diluted compounds were added to appropriate wells and followed a quick spin (1000 rpm, 10 sec) to bring media and cells to the bottom of plate. The plates were covered with SealMate film to avoid evaporation and placed in 37° C. incubator for approximately 18-24 hours.
Read plates: Equilibrate appropriate amount of Promega OneGlo luciferase reagent to room temperature. Remove the plates from incubator and add 25 uL of OneGlo reagent/well by multiple channel pipette and read the plates with Tecan F500 luminometer within 3 minutes.
The ability of the compounds disclosed herein to inhibit GR activity was quantified and the respective IC50 value was determined.

Row | Compound | IC50
1 | CC#C[C@]1(O)CC[C@H]2[C@@H]3CCC4=CC(=O)CCC4=C3[C@@H](c3ccc(Cl)c(C(C)C)c3)C[C@@]21C [drawing 200] | < 100 nM
2 | CC#C[C@]1(O)CC[C@H]2[C@@H]3CCC4=CC(=O)CCC4=C3[C@@H](c3ccc(C(C)C)c(N(C)C)c3)C[C@@]21C [drawing 201] | < 100 nM
3 | CC#C[C@]1(O)CC[C@H]2[C@@H]3CCC4=CC(=O)CCC4=C3[C@@H](c3ccc(N(C)C)c(C(C)C)c3)C[C@@]21C [drawing 203] | > 100 nM
4 | CC#C[C@]1(O)CC[C@H]2[C@@H]3CCC4=CC(=O)CCC4=C3[C@@H](c3ccc(Cl)c(OC)c3)C[C@@]21C [drawing 204] | > 100 nM
5 | CC#C[C@]1(O)CC[C@H]2[C@@H]3CCC4=CC(=O)CCC4=C3[C@@H](c3cc(F)c(C)c(F)c3)C[C@@]21C [drawing 209] | < 100 nM
6 | CC#C[C@]1(O)CC[C@H]2[C@@H]3CCC4=CC(=O)CCC4=C3[C@@H](c3ccc4c(c3)OCCO4)C[C@@]21C [drawing 210] | < 100 nM
7 | CC#C[C@]1(O)[C@H](CC)C[C@H]2[C@@H]3CCC4=CC(=O)CCC4=C3[C@@H](c3ccc(N(C)C)cc3)C[C@@]21C [drawing 225] | < 100 nM
8 | CC#C[C@]1(O)[C@H](C)C[C@H]2[C@@H]3CCC4=CC(=O)CCC4=C3[C@@H](c3ccc(S(=O)(=O)N4CCCCC4)cc3)C[C@@]21C [drawing 226] | < 100 nM
9 | CC#C[C@]1(O)[C@H](C)C[C@H]2[C@@H]3CCC4=CC(=O)CCC4=C3[C@@H](c3ccc(N4CCOC[C@H]4C)cc3)C[C@@]21C [drawing 227] | < 100 nM

test system: AR; assay: In Vitro AR Agonism Assay (LNAR reporter cell line); type: cell-based; details: LNAR cells, RPMI + 10% CSS, 18-24 hrs; maximum response of Mifepristone set to 1
Experimental: Example 6: In Vitro AR Agonism Assay
The AR agonism assay was done in the LNAR reporter cell line which has overexpressed AR and 4XARE-Luc genes. This cell line is sensitive to even minor partial AR agonism activity in hormone-deprived media (CSS). The assays were done in RPMI (without phenol red)+10% CSS using 6000 LNAR cells/well in 384-well plates and compounds were incubated with cells in […] incubator for 18-24 hrs. OneGlo reagent (25 uL/well) was added and plates were read with luminometer within 3 minutes.
To gauge the AR partial agonism activity, Mifepristone is included as a standard in the assay. AR agonism assay results are quantified by determining the ratio of the maximum response of individual compounds to the maximum response of Mifepristone (arbitrarily set to 1). Values of Table 3 are reported as Relative Maximum Response to Mifepristone. This general trend of AR agonism was shown for the class of compounds described herein.

Row | Compound | Relative Maximum Response to Mifepristone
10 | CC#C[C@]1(O)CC[C@H]2[C@@H]3CCC4=CC(=O)CCC4=C3[C@@H](c3ccc(S(=O)(=O)N4CCCCC4)cc3)C[C@@]21C [drawing 241] | A (A: ≤0.4)
11 | CC#C[C@]1(O)CC[C@H]2[C@@H]3CCC4=CC(=O)CCC4=C3[C@@H](c3ccc(S(=O)(=O)C(C)(C)C)cc3)C[C@@]21C [drawing 242] | A (A: ≤0.4)
12 | CC#C[C@]1(O)CC[C@H]2[C@@H]3CCC4=CC(=O)CCC4=C3[C@@H](c3cccc(C(C)C)c3)C[C@@]21C [drawing 243] | A (A: ≤0.4)
13 | CC#C[C@]1(O)CC[C@H]2[C@@H]3CCC4=CC(=O)CCC4=C3[C@@H](c3cccc(OCC)c3)C[C@@]21C [drawing 244] | A (A: ≤0.4)
14 | CC#C[C@]1(O)CC[C@H]2[C@@H]3CCC4=CC(=O)CCC4=C3[C@@H](c3ccc(C)c(C)c3)C[C@@]21C [drawing 245] | A (A: ≤0.4)
15 | CC#C[C@]1(O)CC[C@H]2[C@@H]3CCC4=CC(=O)CCC4=C3[C@@H](c3cc(F)cc(F)c3)C[C@@]21C [drawing 246] | A (A: ≤0.4)
16 | CC#C[C@]1(O)CC[C@H]2[C@@H]3CCC4=CC(=O)CCC4=C3[C@@H](c3ccc(F)c(C#N)c3)C[C@@]21C [drawing 247] | B (B: >0.4)
17 | CC#C[C@]1(O)CC[C@H]2[C@@H]3CCC4=CC(=O)CCC4=C3[C@@H](c3ccc(Cl)c(C(C)C)c3)C[C@@]21C [drawing 248] | A (A: ≤0.4)
18 | CC#C[C@]1(O)CC[C@H]2[C@@H]3CCC4=CC(=O)CCC4=C3[C@@H](c3ccc(C(C)C)c(N(C)C)c3)C[C@@]21C [drawing 249] | A (A: ≤0.4)
19 | CC#C[C@]1(O)CC[C@H]2[C@@H]3CCC4=CC(=O)CCC4=C3[C@@H](c3ccc(N(C)C)c(C(C)C)c3)C[C@@]21C [drawing 250] | A (A: ≤0.4)
20 | CC#C[C@]1(O)CC[C@H]2[C@@H]3CCC4=CC(=O)CCC4=C3[C@@H](c3ccc(Cl)c(OC)c3)C[C@@]21C [drawing 251] | A (A: ≤0.4)
21 | CC#C[C@]1(O)CC[C@H]2[C@@H]3CCC4=CC(=O)CCC4=C3[C@@H](c3cc(F)c(C)c(F)c3)C[C@@]21C [drawing 252] | A (A: ≤0.4)
22 | CC#C[C@]1(O)CC[C@H]2[C@@H]3CCC4=CC(=O)CCC4=C3[C@@H](c3ccc4c(c3)OCCO4)C[C@@]21C [drawing 253] | A (A: ≤0.4)
23 | CC#C[C@]1(O)[C@H](CC)C[C@H]2[C@@H]3CCC4=CC(=O)CCC4=C3[C@@H](c3ccc(N(C)C)cc3)C[C@@]21C [drawing 254] | A (A: ≤0.4)
24 | CC#C[C@]1(O)[C@H](C)C[C@H]2[C@@H]3CCC4=CC(=O)CCC4=C3[C@@H](c3ccc(S(=O)(=O)N4CCCCC4)cc3)C[C@@]21C [drawing 255] | A (A: ≤0.4)
25 | CC#C[C@]1(O)[C@H](C)C[C@H]2[C@@H]3CCC4=CC(=O)CCC4=C3[C@@H](c3ccc(N4CCOC[C@H]4C)cc3)C[C@@]21C [drawing 256] | B (B: >0.4)

same assay, conditions: in concentrations as low as 10 nM

Row | Compound | AR partial agonism
26 | CC#C[C@]1(O)CC[C@H]2[C@@H]3CCC4=CC(=O)CCC4=C3[C@@H](c3ccc(N(C)C)cc3)C[C@@]21C [Mifepristone, reference compound] | strong partial AR agonism
